We go through twelve compounds from PubChem BioAssay (NCI).

Test systems include HCC-2998 colon; TK-10 renal; MDA-MB-231 breast; OVCAR-8 ovarian; OVCAR-3 ovarian; U251 CNS; HL-60(TB) leukemia; SR leukemia; UACC-257 melanoma; NCI-H226 lung.
Holding throughout (assay): growth of human tumour cells (NCI), 48 h

Structures are written as SMILES. “And” between values parts separate entries of the source, which are not always exact repeats. Identical values can stand only once.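 Five concentrations, 48 hours, 96-well plates. GI50: concentration for 50% inhibition of growth. At the TGI there is no net growth.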 A value given as a limit tells only on which side of the number the result lay.

Consider `O=C(Nc1ccc(Cl)cc1F)c1cc(F)ccc1O`, for which the GI50 is 2.64 µM with HCC-2998 colon; 4.69 µM in the experiment with TK-10 renal; 0.761 µM in the experiment on MDA-MB-231 breast; 2.4 µM in the experiment with OVCAR-8 ovarian; 0.528 µM in the experiment on OVCAR-3 ovarian; 0.832 µM with U251 CNS. Further, the GI50 in the experiment with HL-60(TB) leukemia was 0.622 µM; in the experiment with SR leukemia, 0.752 µM; in the experiment on UACC-257 melanoma, 0.853 µM; in the experiment on NCI-H226 lung it was 1.02 µM. Also, the TGI with HCC-2998 colon is 8.1 µM; with TK-10 renal, 23.1 µM; with MDA-MB-231 breast, 3.81 µM; in the experiment with OVCAR-8 ovarian, greater than 70.8 µM; with OVCAR-3 ovarian, 10.8 µM; in the experiment on U251 CNS, greater than 38.8 µM. For the same compound, the TGI with HL-60(TB) leukemia was 3.45 µM; in the experiment with SR leukemia, greater than 100 µM; with UACC-257 melanoma it was 7.2 µM; with NCI-H226 lung, 5.49 µM.

Take `Cc1c2cnccc2c(C)c2c1c1cc(C(=O)O)ccc1n2C`: the GI50 is 1.25 µM in the experiment on HCC-2998 colon; 1.79 µM in the experiment on TK-10 renal; 1.51 µM with MDA-MB-231 breast; 0.675 µM in the experiment on OVCAR-8 ovarian; 1.35 µM in the experiment with OVCAR-3 ovarian; 0.918 µM in the experiment on U251 CNS. Moreover, the GI50 in the experiment with HL-60(TB) leukemia was 2.09 µM; in the experiment on SR leukemia, 0.435 µM; in the experiment with UACC-257 melanoma, 1.12 µM; with NCI-H226 lung it was 0.454 µM. For the same compound, the TGI turned out to be 4.61 µM in the experiment on HCC-2998 colon; 8.96 µM with TK-10 renal; 5.81 µM in the experiment on MDA-MB-231 breast; 8.3 µM with OVCAR-8 ovarian; 5.68 µM in the experiment with OVCAR-3 ovarian; 7.95 µM with U251 CNS. Further, the TGI in the experiment with HL-60(TB) leukemia was 6.64 µM; in the experiment on SR leukemia it was 3.98 µM; with UACC-257 melanoma, 4.84 µM; with NCI-H226 lung, 2.47 µM.

Consider `NC(=O)c1ccc2nc(-c3ccc(C4(N)CCC4)cc3)c(-c3ccccc3)n2n1`, for which the GI50 with HCC-2998 colon is 13 µM; in the experiment on TK-10 renal it was 2.85 µM; in the experiment with MDA-MB-231 breast it was 14.3 µM; with OVCAR-8 ovarian, 17.4 µM; with OVCAR-3 ovarian, 0.817 µM; in the experiment on U251 CNS it was 6.27 µM. The GI50 in the experiment on HL-60(TB) leukemia was 11.5 µM; with SR leukemia, 7.65 µM; in the experiment on UACC-257 melanoma it was 13.2 µM; with NCI-H226 lung, 12.7 µM. The TGI worked out at 31.7 µM in the experiment with HCC-2998 colon; 27.8 µM in the experiment on TK-10 renal; 32.3 µM with MDA-MB-231 breast; 39.3 µM in the experiment on OVCAR-8 ovarian; 22 µM in the experiment with OVCAR-3 ovarian; 21.5 µM in the experiment on U251 CNS. For the same compound, the TGI with HL-60(TB) leukemia stood at 30.2 µM; in the experiment on SR leukemia it was 31.2 µM; in the experiment with UACC-257 melanoma it was 29.7 µM; in the experiment with NCI-H226 lung, 32.5 µM.

With `O=C(C[C@@]1(O)C(=O)Nc2c(Cl)ccc(Cl)c21)c1ccc(C2CC2)cc1`, the GI50 with HCC-2998 colon was 0.888 µM; in the experiment on TK-10 renal, 15.1 µM; in the experiment with MDA-MB-231 breast, 0.798 µM; in the experiment with OVCAR-8 ovarian, 0.577 µM; in the experiment on OVCAR-3 ovarian, 0.264 µM; in the experiment on U251 CNS, 0.436 µM. The GI50 in the experiment on HL-60(TB) leukemia was 0.263 µM; in the experiment on SR leukemia it was 0.0527 µM; in the experiment on UACC-257 melanoma it was 12.4 µM; with NCI-H226 lung, 1.54 µM. Moreover, the TGI with HCC-2998 colon was 14.8 µM; in the experiment with TK-10 renal it was 46.6 µM; in the experiment with MDA-MB-231 breast, 15.2 µM; in the experiment with OVCAR-8 ovarian, 19.3 µM; in the experiment with OVCAR-3 ovarian, 3.71 µM; in the experiment with U251 CNS, 16.2 µM. Besides, the TGI worked out at 1.07 µM in the experiment on HL-60(TB) leukemia, 15.4 µM in the experiment with SR leukemia, 41.1 µM in the experiment on UACC-257 melanoma and 19.7 µM with NCI-H226 lung.

On to `Cc1coc2c1CC1OC1(C)CCC1OC1(C)C2` (configuration not stated), for which the TGI in the experiment with HCC-2998 colon, in the experiment on TK-10 renal, with MDA-MB-231 breast, in the experiment on OVCAR-8 ovarian, with OVCAR-3 ovarian and in the experiment with U251 CNS was greater than 100 µM in each case. The TGI in the experiment with HL-60(TB) leukemia, with SR leukemia, in the experiment with UACC-257 melanoma and with NCI-H226 lung was greater than 100 µM throughout.

Consider `S=c1nc[nH]c2nc[nH]c12`, for which the GI50 was 2.93 µM and 11.7 µM in the experiment with HCC-2998 colon; 58 µM and 10.2 µM with TK-10 renal; 3.74 µM and 35.5 µM in the experiment on OVCAR-8 ovarian; 0.762 µM and 3.66 µM in the experiment with OVCAR-3 ovarian; 19.3 µM and 72.4 µM with U251 CNS; 3.11 µM and 3.31 µM in the experiment on HL-60(TB) leukemia. Besides, the GI50 is 0.43 µM with SR leukemia; > 100 µM and 43.7 µM with UACC-257 melanoma. Also, the TGI in the experiment on HCC-2998 colon is > 100 µM and 463 µM and > 750 µM; in the experiment with TK-10 renal it was > 100 µM and 549 µM and 332 µM; with MDA-MB-231 breast, > 100 µM and 694 µM and > 750 µM; with OVCAR-8 ovarian, > 100 µM and 739 µM and > 532 µM; in the experiment on OVCAR-3 ovarian, > 100 µM and 537 µM and > 750 µM; in the experiment on U251 CNS, > 100 µM and 719 µM and > 750 µM. Also, the TGI in the experiment on SR leukemia was 72.7 µM and 239 µM; in the experiment with UACC-257 melanoma it was greater than 750 µM; in the experiment with NCI-H226 lung, > 100 µM and 676 µM and > 750 µM.

For the compound `C/C(=C1/N=C(c2ccccc2)OC1=O)c1ccc(C)cc1`, the TGI with HCC-2998 colon, in the experiment with TK-10 renal, in the experiment on MDA-MB-231 breast, in the experiment with OVCAR-8 ovarian, in the experiment on OVCAR-3 ovarian and with U251 CNS was greater than 100 µM each time. In addition, the TGI in the experiment with HL-60(TB) leukemia, with SR leukemia, in the experiment on UACC-257 melanoma and with NCI-H226 lung was greater than 100 µM each time.

On to `Cc1cc(Nc2cc(CN3CCOCC3)c3nc(C)c(Cc4ccc(Cl)cc4F)n3n2)n[nH]1`, for which the GI50 was 1.49 µM in the experiment with HCC-2998 colon; 2.14 µM in the experiment with TK-10 renal; 1.57 µM in the experiment with MDA-MB-231 breast; 2.79 µM in the experiment with OVCAR-8 ovarian; 3.24 µM in the experiment with OVCAR-3 ovarian; 1.52 µM in the experiment on U251 CNS. Also, the GI50 was 0.768 µM in the experiment with HL-60(TB) leukemia, 0.282 µM in the experiment with SR leukemia, 3.35 µM in the experiment on UACC-257 melanoma and 0.561 µM in the experiment with NCI-H226 lung. The TGI in the experiment with HCC-2998 colon was 3.13 µM; in the experiment with TK-10 renal it was 6.61 µM; with MDA-MB-231 breast, 5.65 µM; in the experiment on OVCAR-8 ovarian, 17.2 µM; in the experiment with OVCAR-3 ovarian, 15.3 µM; in the experiment on U251 CNS it was 5.24 µM. Besides, the TGI with HL-60(TB) leukemia is 2.86 µM; with SR leukemia, 1.53 µM; with UACC-257 melanoma, 16.2 µM; with NCI-H226 lung, 4.07 µM.

On to `COc1cc(-c2cc(-c3nc4cc(Cl)c(Cl)cc4[nH]3)[nH]n2)cc(OC)c1OC`, for which the GI50 in the experiment with HCC-2998 colon is 4.47 µM; in the experiment on TK-10 renal, 4.61 µM; with MDA-MB-231 breast, 4.14 µM; in the experiment on OVCAR-8 ovarian it was 2.51 µM; in the experiment with OVCAR-3 ovarian it was 4.05 µM; in the experiment on U251 CNS, 2.96 µM. Moreover, the GI50 in the experiment on HL-60(TB) leukemia is 3.34 µM; with SR leukemia, 3.89 µM; with UACC-257 melanoma, 3.77 µM; with NCI-H226 lung, 2.29 µM. The TGI was 15 µM with HCC-2998 colon; 15.5 µM with TK-10 renal; 20.1 µM in the experiment with MDA-MB-231 breast; 7.48 µM with OVCAR-8 ovarian; 15.4 µM with OVCAR-3 ovarian; 11 µM with U251 CNS. Besides, the TGI turned out to be 11.6 µM in the experiment with HL-60(TB) leukemia, 20.6 µM with SR leukemia, 14.3 µM in the experiment on UACC-257 melanoma and 8.8 µM in the experiment on NCI-H226 lung.

On to `COc1ccc2[nH]c(-c3ccccc3)c(C=C(C#N)C#N)c2c1`, for which the GI50 in the experiment with HCC-2998 colon was 6.08 µM; in the experiment on TK-10 renal, 5.07 µM; in the experiment on MDA-MB-231 breast, 3.8 µM; in the experiment on OVCAR-8 ovarian, 7.71 µM; in the experiment on OVCAR-3 ovarian, 3.08 µM; in the experiment on U251 CNS, 3.53 µM. Further, the GI50 in the experiment on HL-60(TB) leukemia was 2.5 µM; in the experiment on SR leukemia it was 0.865 µM; with UACC-257 melanoma, 30 µM; with NCI-H226 lung, 3.51 µM. The TGI in the experiment with HCC-2998 colon is greater than 100 µM; in the experiment on TK-10 renal, greater than 100 µM; in the experiment with MDA-MB-231 breast, greater than 100 µM; in the experiment with OVCAR-8 ovarian, greater than 100 µM; in the experiment with OVCAR-3 ovarian, 16 µM; in the experiment on U251 CNS it was 25.5 µM. Further, the TGI was 13.2 µM in the experiment on HL-60(TB) leukemia, 3.29 µM in the experiment on SR leukemia, greater than 100 µM with UACC-257 melanoma and 57.6 µM with NCI-H226 lung.

`CC(N)(Cc1c[nH]c2ccccc12)C(=O)O` (configuration not stated): the GI50 in the experiment on HCC-2998 colon, with TK-10 renal, with MDA-MB-231 breast, in the experiment with OVCAR-8 ovarian, in the experiment with OVCAR-3 ovarian and in the experiment with U251 CNS was greater than 2500 µM throughout. The GI50 in the experiment on HL-60(TB) leukemia, with SR leukemia, with UACC-257 melanoma and with NCI-H226 lung was greater than 2500 µM each time. Further, the TGI with HCC-2998 colon, in the experiment on TK-10 renal, in the experiment with MDA-MB-231 breast, in the experiment on OVCAR-8 ovarian, with OVCAR-3 ovarian and in the experiment with U251 CNS was greater than 2500 µM in each case. In addition, the TGI in the experiment on HL-60(TB) leukemia, in the experiment on SR leukemia, in the experiment on UACC-257 melanoma and in the experiment with NCI-H226 lung was greater than 2500 µM each time.

On to `Clc1nc(Cl)c2ncn(C/C=C/Cn3cnc4c(Cl)nc(Cl)nc43)c2n1`, for which the GI50 in the experiment with HCC-2998 colon was 16 µM; in the experiment with TK-10 renal it was 21.7 µM; with MDA-MB-231 breast, 21.2 µM; with OVCAR-8 ovarian, 6.11 µM; in the experiment with OVCAR-3 ovarian it was 12.2 µM; in the experiment with U251 CNS, 16.8 µM. The GI50 with HL-60(TB) leukemia was 17.3 µM; in the experiment with SR leukemia, 14.9 µM; in the experiment with UACC-257 melanoma, 11 µM; in the experiment on NCI-H226 lung, 22.3 µM. Also, the TGI with HCC-2998 colon turned out to be 31.4 µM; in the experiment on TK-10 renal, 39 µM; in the experiment on MDA-MB-231 breast it was 38 µM; with OVCAR-8 ovarian, 21 µM; with OVCAR-3 ovarian it was 25.4 µM; in the experiment on U251 CNS it was 30.7 µM. The TGI in the experiment with HL-60(TB) leukemia was greater than 100 µM; with SR leukemia, 32.2 µM; in the experiment on UACC-257 melanoma, 27.8 µM; with NCI-H226 lung, 42.9 µM.
